# What was measured:
# [1] = test system: AcMNPV binding to TN5B1-4 cells; assay: Binding of [3H]thymidine-labeled AcMNPV budded virus to TN5B1-4 cells; format: cell-based; conditions: for Virus Binding: 30 min; for Binding, A. Binding in Presence of Polyanions: 5 × 10^6 cells/ml for 30 min, control is binding in absence of polyanion; for Binding, C. Pretreatment of Cells: cells pretreated 3 h, washed once, control is untreated cells; for Binding, C. Pretreatment of Cells / Binding, B. Pretreatment of Virus: binding 1 h without polymer; for Binding, B. Pretreatment of Virus: virus pretreated 2 h, pelleted, control is untreated virus
# TN5B1-4 cells [2] = assay: Inducing single-cell formation of clumped TN5B1-4 cells in suspension culture; format: cell-based, Trichoplusia ni; conditions: for Inducing single-cell formation / dispersing clumped cells (in words): clumped suspension culture; for Inducing single-cell formation / dispersing clumped cells (in words) / Concentration adequate to maintain single-cell suspension: serum-free medium
# [3] = test system: AcMNPV infection of TN5B1-4 cells; conditions: cited from earlier work
# [4] = test system: AcMNPV infection of TN5B1-4 cells; assay: Viral infection inhibition in TN5B1-4 (cell growth post-infection); format: cell-based; conditions: at concentrations required to induce and maintain single-cell suspension; MOI 0.1 to 20
# Protocol: (§1) The inhibition of binding was further explored by considering the effect of increasing polyanion concentration on the binding of virus to TN5B1-4 and SF21. Less than 20 μg/ml of both dextran sulfate and heparin were required to attain maximum inhibition. […] Dextran sulfate reduced the binding of the virus to TN5B1-4 but not to SF21. […] The cell growth post-infection was used as a measure of virus infection since infection is known to inhibit cell division. Hereafter, synchronous infection is used to refer to infection with no measurable cell division post-infection.
# The cells were infected at MOI of 0.1, 0.5, 1, 5, 10, and 20 to determine the lowest MOI for synchoronous infection.
# TN5B1-4 cells [5] = conditions: for Toxic above this level: tn5b1-4 cells
# Protocol: Three different molecular weights of dextran sulfate, derived from dextran of MW 5000, 20000, 500000, were evaluated.
# Compounds were evaluated for their ability to induce single cell suspension in 50-ml spinner flasks at 160 rpm. Control cells were passaged at least 10 times in suspension before they were used in any experiments. […] A qualitative score for reduction in clumping relative to control cells was assigned to cells grown in the presence of test compound at the end of the third passage. The protocol for enzyme treatment was the same, but the seeding density was 1×10^6 cells/ml and cells were evaluated after 24 h.
# TN5B1-4 cells [6] = assay: Growth kinetics of TN5B1-4 cells in spinner flasks; format: cell-based, Trichoplusia ni; set-up: dose or concentration left out as unconfirmed
# Protocol: TN5B1-4 suspension cells were grown in 50-ml spinner flasks (Bellco Glass, Vineland, N.J.) with a working volume of 40 ml at 160 rpm. SF21 cells were grown in similar vessels at 130 rpm in Ex-Cell 400 medium. The screw caps of the flasks were replaced with silicone foam closures for better oxygen transfer. Cells were passaged every 3 days.
# The growth of TN5B1-4 DS 5000 cells in suspension was scaled-up to a 1.25 L Celligen reactor agitated with a marine impeller at 90 rpm. The cells were subcultured three times in this reactor with no clump formation. The doubling time was 20 h and a maximum density of 6-7×10^6 cells/ml was reached.
# [7] = test system: AcMNPV binding to SF21 cells; assay: Binding of AcMNPV virus to SF21 cells; format: cell-based
# Protocol: as §1
# [8] = test system: AcMNPV infection of SF21 cells; assay: Viral infection inhibition in SF21; format: cell-based
# Protocol: as §1
# [9] = 100 μg/ml, control = binding of virus to cells with no additive
# [10] = 25 μg/ml, control = binding of virus to cells with no additive
# [11] = 1000 μg/ml, control = binding of virus to cells with no additive
substance,measurement,setting,value
κ-carrageenan,Virus Binding,[1]; [9],73 ± 6 % of Control
DEAE-dextran [DEAE dextran],Inducing single-cell formation / dispersing clumped cells (in words),TN5B1-4 cells [2],ineffective
same,Virus Binding,"[1]; 5 μg/ml, control = binding of virus to cells with no additive",74 ± 9 % of Control
Heparin,Fold higher concentration required to induce single-cell suspension relative to dextran sulfate,TN5B1-4 cells [2],20 fold
same,Concentration required to attain maximum inhibition of virus binding (threshold value),[1],Less than 20 μg/ml
same,Virus Binding,[1]; [9],63 ± 3 % of Control
same,Inhibition of viral infection (as known),[3],known to seriously inhibit infection
hyaluronate,Inducing single-cell formation / dispersing clumped cells (in words),TN5B1-4 cells [2],did not induce single-cell formation
same,Virus Binding,[1]; [9],99 ± 1 % of Control
protamine sulfate,Inducing single-cell formation / dispersing clumped cells (in words),TN5B1-4 cells [2],ineffective
same,Virus Binding,"[1]; 50 μg/ml, control = binding of virus to cells with no additive",virus ppt.
polyvinyl sulfate,Inducing single-cell formation / dispersing clumped cells (in words),TN5B1-4 cells [2],as effective as dextran sulfate
same,Concentration adequate to maintain single-cell suspension,TN5B1-4 cells [2],25 µg/mL
same,Virus Binding,"[1]; 10 μg/ml, control = binding of virus to cells with no additive",52 ± 4 % of Control
same,"Binding, A. Binding in Presence of Polyanions",[1]; 25 μg/ml,52 ± 4 % of control
same,Virus Binding,[1]; [10],52 ± 1 % of Control
same,"Binding, C. Pretreatment of Cells",[1]; 25 μg/ml,95 ± 6 % of control
same,"Binding, B. Pretreatment of Virus",[1]; 25 μg/ml,96 ± 5 % of control
same,Inhibition of viral infection,[4],inhibited viral infection even at high MOI
dextran,Inducing single-cell formation / dispersing clumped cells (in words),TN5B1-4 cells [2],ineffective
same,Virus Binding,[1]; [9],97 ± 2 % of Control
same,Virus Binding,"[1]; 100 μg/ml, polymer of MW 580 kd, control = no additive",99 ± 3 % of Control
chondroitin disaccharides [Chondroitin sulfate disaccharides],Inducing single-cell formation / dispersing clumped cells (in words),TN5B1-4 cells [2],did not disperse clumped cells
same,Virus Binding,[1]; [9],99 ± 6 % of Control
pentosan sulfate,Concentration adequate to maintain single-cell suspension,TN5B1-4 cells [2],100 µg/mL
same,Virus Binding,[1]; [10],53 ± 3 % of Control
same,"Binding, A. Binding in Presence of Polyanions",[1]; 100 μg/ml,55 ± 9 % of control
same,Virus Binding,[1]; [9],55 ± 9 % of Control
same,"Binding, C. Pretreatment of Cells",[1]; 100 μg/ml,96 ± 7 % of control
same,"Binding, B. Pretreatment of Virus",[1]; 100 μg/ml,99 ± 4 % of control
same,Inhibition of viral infection,[4],not severely inhibited
sodium carboxymethylcellulose [sodium CMC],Inducing single-cell formation / dispersing clumped cells (in words),TN5B1-4 cells [2],did not induce single-cell formation
same,Virus Binding,[1]; [11],107 ± 1 % of Control
glucose 6-phosphate,Inducing single-cell formation / dispersing clumped cells (in words),TN5B1-4 cells [2],ineffective
chondroitin sulfate,Virus Binding,[1]; [9],94 ± 3 % of Control
Pluronic F68,Inducing single-cell formation / dispersing clumped cells (in words),TN5B1-4 cells [2],ineffective
same,Virus Binding,[1]; [11],98 ± 2 % of Control
fructose 6-phosphate,Inducing single-cell formation / dispersing clumped cells (in words),TN5B1-4 cells [2],ineffective
polyphosphate,Inducing single-cell formation / dispersing clumped cells (in words),TN5B1-4 cells [2],did not induce single-cell formation
heparin disaccharides,Virus Binding,[1]; [9],103 ± 2 % of Control
dextran sulfate [dextran sulfate I],Inducing single-cell formation in serum-containing media,"TN5B1-4 cells [2]; serum-containing media, up to 300 μg/ml",complete elimination of clumping was not possible
same,Concentration adequate to maintain single-cell suspension,TN5B1-4 cells [2],25 µg/mL
same,Concentration required to attain maximum inhibition of virus binding (threshold value),[1],Less than 20 μg/ml
same,"Binding, A. Binding in Presence of Polyanions",[1]; 25 μg/ml,42 ± 2 % of control
same,Virus Binding,[1]; [10],42 ± 2 % of Control
same,"Binding, C. Pretreatment of Cells",[1]; 25 μg/ml,93 ± 9 % of control
same,"Binding, B. Pretreatment of Virus",[1]; 25 μg/ml,103 ± 3 % of control
same,Reduction of the attachment rate constant,[1]; at concentration required to maintain single-cell suspension,six-fold
same,Toxic at concentrations greater than,TN5B1-4 cells [5],greater than 0.1%
same,Effect on doubling time and maximum cell density,TN5B1-4 cells [6],does not affect
same,Effect on binding of virus to SF21,[7],did not affect binding
same,Inhibition of viral infection,[4],not severely inhibited
same,Inhibition of viral infection in SF21,[8],inhibited infection
dermatan sulfate,Virus Binding,[1]; [9],65 ± 7 % of Control
sodium polyphosphoric acid,Inducing single-cell formation / dispersing clumped cells (in words),TN5B1-4 cells [2],did not induce single-cell formation
same,Virus Binding,[1]; [9],98 ± 1 % of Control
dextran sulfate [dextran sulfate 500000],Toxic above this level,TN5B1-4 cells [5],above 5 μg/ml
fucoidan sulfate,Virus Binding,[1]; [10],53 ± 1 % of Control
same,Virus Binding,[1]; [9],53 ± 1 % of Control
dextran sulfate [dextran sulfate II],Virus Binding,[1]; [10],82 ± 4 % of Control
λ-carrageenan,Virus Binding,[1]; [10],68 ± 3 % of Control
same,Toxic above this level,TN5B1-4 cells [5],> 25 µg/mL
